Data reported in patent US12662403B2, “Photoswitchable guanidinium compounds for removal of oxyanions from liquid solutions” (UT-Battelle, LLC, priority 2021, dated 2026).

Assays:
[1] = Sulfate binding constants, average of the UV-vis and NMR titrations, and E,E − Z,Z comparison
Description: For absorption titration experiments, a freshly prepared stock solution of 1.5 mM E,E-2PyDIG·HOTf in DMSO-d6 was added to a 1 mm quartz cuvette, and a tetramethylammonium sulfate solution (3.6 mM in DMSO-d6) was added, and the solution was mixed. Absorption spectra were collected after each addition using a UV-Visible spectrophotometer at ca. 24° C. For the Z,Z photoisomer, a freshly prepared 1.5 mM 2PyDIG·HOTf sample was irradiated for 1 hour before titration experiments were prepared and carried out in the same manner as for the E,E isomer.
The binding constants from the three UV-Vis titrations were calculated using commercial software based on the changes in the 2PyDIG^+ absorption maximum value at 315 nm and 320 nm for the E,E and Z,Z photoisomers, respectively. Fitting was performed by assigning the 1:0 and 1:2 PyDIG:sulfate adducts as spectra from before addition of sulfate and after 3 molar equivalents of sulfate, respectively.
For ^1H NMR titrations, a freshly prepared stock solution of 1.5 mM 2PyDIG·HOTf in DMSO-d6 was added to twelve NMR tubes, and a tetramethylammonium sulfate solution (10 mM in DMSO-d6) was added in varying stoichiometric amounts. Clean DMSO-d6 was then added to achieve a final volume of 500 μL. Titrations were performed with both a micropipette and a micrometer syringe. For the Z,Z photoisomer, a freshly prepared 1.5 mM 2PyDIG·HOTf sample was irradiated for 1 hour before the six titration experiments were prepared and carried out in the same manner as for the E,E isomer. To ensure that the PyDIG concentration was not changing as a result of precipitation, dimethylsulfone was added as an internal standard to the 1:2 PyDIG:SO4 solution. It was determined that the concentration of PyDIG remained constant throughout the experiment.
The binding constants from the four ^1H NMR titrations were calculated using commercial software based on the changes in the guanidinium —N—H chemical shifts of the 2PyDIG protons. During fitting, only the monoprotonated 2PyDIG cation was considered, as the Bjerrum pair of 2PyDIG cation and triflate in DMSO was estimated to have a Kassociation value of 156 M−^1. Fitting was performed by locking the 1:0 and 1:2 PyDIG:sulfate adducts at known chemical shift values to reduce the number of adjustable parameters to refine. The corresponding speciation and residual plots for each trial made. Attempts to increase the experimental concentration of 2PyDIG·HOTf higher than 1 mM produced solids, which prevented NMR titrations at higher concentrations.

[2] = Photoswitching in the absence or presence of sulfate (1H NMR, DMSO-d6); assay type: physicochemical
Description: Photoswitching in the presence of sulfate was performed in one of two methods. In the first method, 0.5 mol ratio (sulfate to 2PyDIG^+) tetramethylammonium sulfate was added to a freshly prepared 10 mM E,E-2PyDIG·HOTf in DMSO-d6 solution in a quartz cuvette. After the addition of sulfate, the solution was irradiated with a UV (Hg lamp) light for 2 hours while stirring. The solution was then heated statically for 36 hours, at which point the solution was left to cool at room temperature for approximately 30 minutes, and a ^1H NMR spectrum was collected. In the second method, a freshly prepared 10 mM E,E-2PyDIG·HOTf in DMSO-d6 solution was irradiated with UV (Hg lamp) light for 2 hours while stirring. Following this, tetramethylammonium sulfate was added in either 0.5 or 1.0 mol ratio (sulfate to 2PyDIG^+). The solution was then heated statically for 36 hours, at which point the solution was left to cool at room temperature for approximately 30 minutes, and a ^1H NMR spectrum was collected. ^1H NMR spectra were collected on 500 μL aliquots of the freshly prepared samples, samples after photoirradiation, and samples after thermal treatment at 50° C. for 36 hours.

[3] = Photoirradiation, thermal relaxation and cycling monitored by 1H NMR in DMSO-d6; assay type: physicochemical; details: for time to reach thermal equilibrium: 10 mM, photoirradiated
Description: In a typical photoirradiation NMR experiment, 3 mL of a freshly made deuterated DMSO solution was placed in a quartz cuvette (1 cm×1 cm×4.5 cm), stirred, and irradiated with UV-visible light using an unfiltered super high-pressure mercury lamp with emissions in the long-wave UV region and in the visible region at the yellow, green, blue, and violet wavelengths (254-800 nm). From the irradiated solution, 500 μL aliquots were removed with a micropipette and transferred to NMR tubes. For studies including excess triflate, a stock solution (200 mM) of tetramethylammonium triflate in DMSO-d6 was added before irradiation to obtain the desired concentration. Experiments were carried out in the same fashion as above. All measurements were obtained on the irradiated solutions within 1 hour of irradiation. ^1H spectra were recorded on a Bruker AvanceIII-400 MHz NMR spectrometer equipped with a 5 mm PABBO probe. The residual solvent signal ((CD3)2SO δH=2.50 ppm) was considered as an internal reference to calibrate spectra and the temperature was held at 24° C. The chemical shifts used to monitor photoisomerization were the set of doublets at 8.67 and 8.80 ppm and triplets at 7.54 and 7.68 ppm for the E,E and Z,Z isomers, respectively. […] The sample underwent hydrolysis back to the aldehyde only under forcing conditions of heating the sample at 50° C. for 2 weeks in water, where the aldehyde proton at 9.86 ppm started to resolve.
Cycling studies were performed by irradiating a freshly prepared, 9.94 mM 2PyDIG·HOTf DMSO-d6 solution in an NMR tube at 24° C. After 6 hour, a ^1H NMR spectrum was collected to determine the photoisomerization value, and the sealed NMR tube was placed in a 50° C. oven. The sample was heated statically for 24 hour, at which point the solution was left to cool at room temperature for approximately 30 min, and a ^1H NMR spectrum was collected to determine the thermal relaxation value. This cycling process was repeated three more times.

[4] = Control, no SO4 added, mol ratio 0
[5] = SO4 added after irradiation, mol ratio 0.5
[6] = SO4 added after irradiation, mol ratio 1.0

log b11, E,E − Z,Z Difference ([1]; Eq. 2, difference of log binding constants of the isomers): 5.40±0.45 | log b21, E,E − Z,Z Difference ([1]; Eq. 3, difference of log binding constants of the isomers): 8.31 ± 0.56 | log b21, E,E Avg Value ([1]; Eq. 3, precision-weighted average of UV-vis and NMR titrations, DMSO-d6, 24° C.): 11.39±0.55 | log b12, E,E − Z,Z Difference ([1]; Eq. 4, difference of log binding constants of the isomers): 7.91 ± 0.76 | log b12 of the 1:2 adduct ([1]; as printed in text with unit, average value of Table 2): 11.91±0.74 M^−1 | log K12, addition of the second sulfate to the 1:1 adduct ([1]; stepwise constant, DMSO-d6): 4.7±1.5 | Relative Amount of E,E-2PyDIG+, before irradiation [2, 4]: 97.4 ± 0.6% | Relative Amount of E,E-2PyDIG+, thermal equilibrium [2, 4]: 70.5 ± 0.9% | Relative Amount of E,E-2PyDIG+, after irradiation ([2]; Control, no SO4 added, mol ratio 0, PSS): 32.3 ± 4.4% | Relative Amount of E,E-2PyDIG+, after irradiation [2, 5]: 33.2 ± 5.3% | Relative Amount of E,E-2PyDIG+, before irradiation [2, 5]: 95.1 ± 1.4% | Relative Amount of E,E-2PyDIG+, thermal equilibrium [2, 5]: 93.1 ± 3.3% | Relative Amount of E,E-2PyDIG+, after irradiation [2, 6]: 31.0 ± 4.7% | Relative Amount of E,E-2PyDIG+, before irradiation [2, 6]: 93.4 ± 2.9% | Relative Amount of E,E-2PyDIG+, thermal equilibrium [2, 6]: 91.6 ± 1.9% | Relative Amount of E,E-2PyDIG+, before irradiation ([2]; SO4 added before irradiation, mol ratio 0.5): 91.1 ± 1.2% | Relative Amount of E,E-2PyDIG+, thermal equilibrium ([2]; SO4 added before irradiation, mol ratio 0.5, 50° C., 36 hours): 91.2 ± 1.4 ^ % | Relative Amount of E,E-2PyDIG+, thermal equilibrium ([2]; SO4 added before irradiation, mol ratio 0.5, 50° C., 36 hours, listed as 2PyDIG·HOTf): 91.2±1.4% | Relative Amount of E,E-2PyDIG+, after irradiation ([2]; SO4 added before irradiation, mol ratio 0.5, 2 hours UV): 32.5 ± 3.8 ^ % | Relative Amount of E,E-2PyDIG+, after irradiation ([2]; SO4 added before irradiation, mol ratio 0.5, 2 hours UV, listed as 2PyDIG·HOTf): 32.5±3.8% | Relative Amount of E,E-2PyDIG+, before irradiation ([2]; SO4 added before irradiation, mol ratio 0.5, listed as 2PyDIG·HOTf): 92.8±1.4% | E,E isomer before sulfate addition, before irradiation ([2]; ca. 10 mM 2PyDIG·HOTf in DMSO-d6, before addition of 0.5 mol ratio sulfate): 93.1±1.2% | photoconversion to the Z,Z isomer ([3]; 1.5 mM (low concentration), UV irradiation, DMSO-d6, 24° C.): 95.6±0.4% | Z,Z isomer initially present ([3]; 1.5 mM, before UV irradiation, DMSO-d6): 5.5±0.5% | percent Z,Z isomer in cycling, after irradiation ([3]; 10 mM in DMSO, 6-hour irradiation): 69% | percent Z,Z isomer in cycling, after dark equilibration ([3]; 10 mM in DMSO, 24-hour dark equilibration): 25% | Z,Z isomer at PSS ([3]; 10 mM solution, UV irradiation): 67.7±4.4% | experimental free energy difference between E,E and Z,Z forms (Eq. 1) ([3]; in the presence of triflate): 0.5 kcal/mol | equilibrium constant of thermal relaxation back to E,E from Z,Z (Eq. 1) ([3]; independent of temperature): 2.38(8) | E,E isomer at common thermal equilibrium ([3]; photoirradiated and nonirradiated solutions, thermal relaxation): 70.5±0.9%
SMILES: N=C(N/N=C/c1ccccn1)N/N=C/c1ccccn1.O=S(=O)(O)C(F)(F)F [E,E-2PyDIG, bis(2-((E)-pyridin-2-ylmethylene)hydrazineyl)methaniminium trifluoromethanesulfonate]
time required to reach thermal equilibrium ([3]; 1 mM solution, even at elevated temperatures): greater than 20 days | time to reach photoconversion to the Z,Z isomer ([3]; 1.5 mM, UV irradiation): less than 15 min | time to reach PSS ([3]; 10 mM solution, UV irradiation): more than 2 hours | time to reach thermal equilibrium ([3]; 24° C.): 4 days | time to reach thermal equilibrium ([3]; 50° C.): less than 24 h | time to thermally equilibrate, unirradiated E,E isomer ([3]; unirradiated, 24° C.): 14 days
